1 substance from US20240369551A1 (priority 2021, published 2024) can be followed below.

Ends that are not written are not given here.

The test system of the test is COVID19 anti-S1 IgG. Description: UV-vis aggregation test of peptide-coated nanoparticles (Examples 1, 6, 7, 8). Particulars: silver nanoparticles (AgNP, 10 nm), streptavidin-biotin. It counts as binding.

Consider “S14P5-Ag: S14P5 epitope conjugated onto silver nanoparticles (AgNP, 10 nm) through the streptavidin-biotin approach (TESNKKFLPFQQFGRDIA; also: conjugated to silver nanoparticles via streptavidin-biotin)”, for which the “response upon introduction of COV19 anti-S1 IgGs” value is reported as “visible nanoparticle precipitation”.
